Laboratory results reported in patent publication US20010056582A1, “PAIRED MUTATIONS” (priority 1997, published 2001).
Where a name gives a salt, the structure may show the parent alone. Read-outs that look alike come from different tables or passages of the source.

What was measured:
[1] = test system: post-cell stages of spermatogenesis (male germ cells); settings: cited from earlier work; for Lethal/tested mutations: number of lethal mutations among those tested, for chlorambucil includes mutations with evidence for deletion
[2] = test system: zebrafish; settings: ENU mutagenesis; cited from earlier work
[3] = test system: male mice; assay: Sterility of male mice after ENU treatment; type: in vivo
Protocol: Mutations in the DNA of the premeiotic spermatogonia of male mice can be induced with the DNA alkylating agent ethylnitrosourea (ENU). Typically, 3 separate doses of 100 mg/kg body weight ENU are injected interperitoneally, with each injection separated by a one week interval. The animals undergo a period of sterility (usually 8-14 weeks), after which they can be mated to nonmutagenized females to produce offspring (the F1 generation) which carry heterozygous mutations in their genome (FIG. 1).
Each animal carries the same set of heterozygous mutations throughout both somatic and germ tissue. To generate large numbers of offspring for a paired sample set, 300 males are treated with ENU. Approximately 100 of these mice will be permanently sterile; the remaining 200 are permanently mated with 2 females each. […] In this way a set of paired samples comprised of over 30,000 animals can be produced within a year, including the time required to establish the ENU treated breeding males. The process can be scaled up by ENU treatment and breeding of additional male mice.

[4] = test system: mice; settings: cited from earlier work; for mutation frequency compared with ENU: other chemical mutagens versus ENU (approximately 1 per 1000 mice)
[5] = experimental minus historical control 43/801,406, for period of maximum response, at the listed exposure
[6] = rate relative to exposure in mol per kg body weight

Compound | Induced mutation rate per locus [1, 5] | Lethal/tested mutations [1] | Induced mutation rate per locus per mol [1, 6] [per mol] | mutation frequency compared with ENU [4] | also measured
C=CC(N)=O [AA, acrylamide monomer] |  |  |  |  | Induced mutation rate per locus ([1]; mouse, in vivo): 18.2 × 10^−5; Induced mutation rate per locus per mol ([1]; mouse, in vivo): 0.1 per mol
O=P1(N(CCCl)CCCl)NCCCO1 (stereo not drawn) [Cp, cyclophosphamide] | 24.3 × 10^−5 | 3/5 | 0.5 |  | 
CCN(N=O)C(N)=O [ENU, N-ethyl-N-nitrosourea] | 10.6 × 10^−5 | 0/5 | 0.2 |  | locus-specific mutation frequency [2]: 1/1000; period of sterility ([3]; male mice, 3 doses of 100 mg/kg ENU interperitoneally at one week intervals): 8-14 weeks; mice permanently sterile ([3]; of 300 males treated with ENU): Approximately 100 mice; frequency of mutations, determined for numerous genes ([4]; for any given gene screened, phenotype-based): 0.5-1.5 mutant mice per 1000 mice; frequency of a mutation in any given gene ([4]; offspring of ENU mutagenized male mice, based on phenotypic assays): approximately 1 per 1000 mice
CNNCc1ccc(C(=O)NC(C)C)cc1.Cl [Pre, phocarbazine hydrochloride] | 21.6 × 10^−5 |  | 0.1 | same type of mutation frequency | 
CN(N=O)C(N)=O [MNU, N-methyl N-nitrosourea] | 90.2 × 10^−5 | 0/17 | 1.2 | same type of mutation frequency | 
CCOS(C)(=O)=O [EtMs, ethyl methanesulforate] | 20.9 × 10^−5 | 0/1 | 0.1 |  | 
O=C(O)CCCc1ccc(N(CCCl)CCCl)cc1 [Chl, chlorambucil] | 127.3 × 10^−5 | 1/4 | 38.7 |  | 
COS(C)(=O)=O [MeMs, methyl methanesulforate] | 24.0 × 10^−5 | 10/14 | 0.7 | same type of mutation frequency | 
CCOS(=O)(=O)OCC [Et2SO4, diethyl sulfate] |  | 4/4 |  |  | Induced mutation rate per locus ([1]; mouse, in vivo): 11.2 × 10^−5; Induced mutation rate per locus per mol ([1]; mouse, in vivo): 0.1 per mol
